Literature values in patent publication US20240377385A1, “METHODS AND COMPOSITIONS OF MATTER FOR TREATING CANCER AND PREDICTING RESPONSE TO THERAPY” (ICCA INC., priority 2023, published 2024).

How the values were obtained:
[1] = system: PAIII androgen-independent syngeneic prostate cancer cell line; settings: daily intraperitoneal administration for 30 days, evaluation at day 40; cited from earlier work
[2] = system: human xenografted glioma, ovarian, and neuroblastoma cells; settings: cited from earlier work
[3] = system: battery of tumor cell lines; settings: in vitro; cited from earlier work
HUVEC = settings: in vitro; cited from earlier work
neovascularization = settings: cited from earlier work
vascular cord formation = settings: in vivo administration; cited from earlier work
S-180 sarcoma = settings: parenteral administration; cited from earlier work
T cell and B cell = settings: high dose; in vitro; cited from earlier work
NK = settings: high dose; cited from earlier work
dendritic cells = settings: cited from earlier work
[4] = system: hypoxia inducible factor (HIF)-1; settings: cited from earlier work
[5] = system: monocytes derived from human peripheral blood; settings: 12 hour exposure; cited from earlier work

| Structure (SMILES) | pulmonary and lymphatic metastasis [1] | tumor growth [1] | in vivo inhibition of xenografted cells [2] | cytotoxicity of Docetaxel, Epirubicin, Irinotecan and 5-FU [3] | HUVEC proliferation (HUVEC) | neovascularization (neovascularization) | vascular cord formation (vascular cord formation) | angiogenesis and the pro-angiogenic factors bFGF, VEGF, and MMP-2 (S-180 sarcoma) | tumor growth (S-180 sarcoma) | T cell and B cell proliferative responses as well as IL-2 secretion (T cell and B cell) | NK cytotoxic activity (NK) | T cell activating ability of dendritic cells (dendritic cells) | activation of the hypoxia inducible factor (HIF)-1 [4] | FcgammaR-mediated cytokine production and antibody-dependent cellular cytotoxicity by monocytes [5] |
| --- | --- | --- | --- | --- | --- | --- | --- | --- | --- | --- | --- | --- | --- | --- |
| O=C1O[C@H]([C@@H](O)CO)C(O)=C1O [AA, ascorbic acid] | reduction | significant inhibition | successful in vivo inhibition | Enhancement | inhibits | suppressing neovascularization | suppressed vascular cord formation | suppression | reduced tumor growth | inhibits | inhibits | inhibit | suppresses activation | – |
| CCOCc1nc2c(N)nc3ccccc3c2n1CC(C)(C)O [Group R-848, resiquimod] | – | – | – | – | – | – | – | – | – | – | – | – | – | increased |
